According to patent US9023789B2, “Amylin analogs and pharmaceutical compositions thereof” (Novo Nordisk A/S, priority 2012, dated 2015):
≈ marks a conversion by molar mass, not a printed value. Like-named read-outs stand apart in the source and are kept apart here. Numbered stars: 1 amine (or outer) side, 2 acyl side, 3 side chain; on linkers, the order of the positions; unused ones are H or OH. Bridge positions count the residues as written; N and C are the ends. Side chains are listed from the residue outwards. Peptide text beside a SMILES is read from it. * marks the point of attachment. C20 diacid = O=C(O)CCCCCCCCCCCCCCCCCCC(=O)*; γGlu = O=C(O)[C@H](CCC(=O)[*:2])N[*:1]; AEEA = NCCOCCOCC(=O)O

How the values were obtained:
[1] = system: Sprague Dawley (SD) rats; test: ASSAY (I) efficacy testing on appetite (food intake) using an ad libitum fed rat model; type: in vivo; conditions: rat, 30 nmol/kg
Summary of the method: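 Individual food consumption was logged each hour up to 7 h and again at 24 h, occasionally 48 h, with Grubbs-test outliers removed. Each 200–250 g Sprague Dawley rat, free-feeding in its home cage under reversed lighting, received a single ip, po or sc dose of 0.01–3 mg/kg at lights-off, alongside a vehicle group.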

[2] = ASSAY (IV) determination of solubility; type: physicochemical
Summary of the method: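 UPLC read-out of polypeptide concentration after centrifugation. Samples: aqueous polypeptide stock ([…]) + 100 mM buffer 1:1, glycylglycine pH 3.0–5.0 or bistrispropane pH 6.0–8.0; 18 h, RT.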

[3] = molecular target: T1, human amylin receptor (membranes from Amylin 3(a)/CRE-luc cells) (Homo sapiens, UniProt O60896+P30988); test: ASSAY (V) binding to the human amylin receptor (SPA, 125I-rat amylin); conditions: for IC50: Table 4, read-out: hAmylin-R bind IC50;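 on all read-outs here: competition binding of cell membranes (35 ng/µL) mixed with SPA beads in 384-well plates at 40 µL total volume, read by scintillation counting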
T1 construct: expressed in transfected cells
T1 sequence (P30988 25-474): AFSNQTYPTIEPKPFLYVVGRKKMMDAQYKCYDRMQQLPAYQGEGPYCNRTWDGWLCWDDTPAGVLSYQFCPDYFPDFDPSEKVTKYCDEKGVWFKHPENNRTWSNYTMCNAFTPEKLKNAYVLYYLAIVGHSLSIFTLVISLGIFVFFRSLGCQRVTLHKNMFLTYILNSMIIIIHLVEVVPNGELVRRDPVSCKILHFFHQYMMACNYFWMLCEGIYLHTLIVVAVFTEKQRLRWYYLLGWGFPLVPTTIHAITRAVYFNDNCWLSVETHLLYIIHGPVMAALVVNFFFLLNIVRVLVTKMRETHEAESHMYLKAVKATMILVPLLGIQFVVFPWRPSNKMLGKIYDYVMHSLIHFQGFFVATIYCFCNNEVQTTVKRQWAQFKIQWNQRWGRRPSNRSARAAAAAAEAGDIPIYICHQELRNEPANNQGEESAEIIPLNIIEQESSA
T1 sequence (O60896 24-148 partner): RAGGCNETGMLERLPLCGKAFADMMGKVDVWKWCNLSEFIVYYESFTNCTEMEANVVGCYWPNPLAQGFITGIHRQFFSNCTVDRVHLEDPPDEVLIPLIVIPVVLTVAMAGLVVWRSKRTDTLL

[4] = molecular target: T2, rat calcitonin receptor (Rattus norvegicus, UniProt P32214); test: ASSAY (VIII) binding to the rat calcitonin receptor; conditions: Table 7, read-out: rCTR bind IC50
T2 construct: expressed in transfected cells; host or cells: BHK tk'ts 13 (transient, FuGENE 6), membranes
T2 sequence (P32214 25-479 isoform P32214-2 limits assumed): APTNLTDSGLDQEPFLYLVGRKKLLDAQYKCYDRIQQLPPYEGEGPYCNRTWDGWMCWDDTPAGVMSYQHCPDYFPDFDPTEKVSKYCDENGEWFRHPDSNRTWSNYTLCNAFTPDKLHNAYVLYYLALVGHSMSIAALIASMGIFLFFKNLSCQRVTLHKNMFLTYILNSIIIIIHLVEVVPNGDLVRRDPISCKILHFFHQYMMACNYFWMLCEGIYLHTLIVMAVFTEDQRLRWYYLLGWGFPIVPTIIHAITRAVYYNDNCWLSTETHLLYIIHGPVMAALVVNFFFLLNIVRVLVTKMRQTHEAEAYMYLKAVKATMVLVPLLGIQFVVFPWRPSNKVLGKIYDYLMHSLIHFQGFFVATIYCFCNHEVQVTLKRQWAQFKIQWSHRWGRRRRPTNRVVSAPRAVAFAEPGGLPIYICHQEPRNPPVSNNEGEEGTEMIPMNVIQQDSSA
Summary of the method: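 Receptor source: membranes from transiently transfected BHK tk′ts 13 cells expressing rat calcitonin receptor, collected roughly 48 hours after transfection.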

[5] = bistrispropane buffer, pH 6.5, read-out: Solubility pH 6.5 Concentration
[6] = bistrispropane buffer, pH 7.5, read-out: Solubility pH 7.5 Concentration
[7] = bistrispropane buffer, pH 6.0, read-out: Solubility pH 6.0 Concentration
[8] = bistrispropane buffer, pH 7.0, read-out: Solubility pH 7.0 Concentration
[9] = bistrispropane buffer, pH 8.0, read-out: Solubility pH 8.0 Concentration
[10] = glycylglycine buffer, pH 3.0, read-out: Solubility pH 3.0 Concentration
[11] = glycylglycine buffer, pH 4.0, read-out: Solubility pH 4.0 Concentration
[12] = glycylglycine buffer, pH 5.0, read-out: Solubility pH 5.0 Concentration
[13] = Table 5, selectivity, hCTR bind IC50 / hAmylin-R bind IC50
[14] = Table 5a, selectivity, hCTR bind IC50 / hAmylin-R bind IC50
[15] = Table 5b, selectivity, hCTR bind IC50 / hAmylin-R bind IC50
[16] = Table 5c, selectivity, hCTR bind IC50 / hAmylin-R bind IC50
[17] = Table 7, human binding selectivity, included for comparison
[18] = Table 7a (preferred compounds), human binding selectivity, included for comparison
[19] = ratio of human calcitonin receptor binding IC50 to human amylin receptor binding IC50

Compound	Food intake reduction 0-24 h 30 nmol/kg (%) [1] [%]	Food intake reduction 24-48 h 30 nmol/kg (%) [1] [%]	solubility at 18 h [2, 5] [µM]	solubility at 18 h [2, 6] [µM]	solubility at 18 h [2, 7] [µM]	solubility at 18 h [2, 8] [µM]	solubility at 18 h [2, 9] [µM]	solubility at 18 h [2, 10] [µM]	solubility at 18 h [2, 11] [µM]	solubility at 18 h [2, 12] [µM]	IC50 [3] [nM]	Ratio hCT/hAmylin binding [3, 13]	Ratio hCT/hAmylin binding [3, 14]	Ratio hCT/hAmylin binding [3, 15]	Ratio hCT/hAmylin binding [3, 16]	Ratio hCT/hAmylin binding [3, 17]	Ratio hCT/hAmylin binding [3, 18]	Ratio hCT/hAmylin binding [3, 19]	IC50 [4] [nM]
CC[C@H](C)[C@H](NC(=O)[C@H](C)NC(=O)CNC(=O)[C@H](Cc1ccccc1)NC(=O)[C@H](CC(N)=O)NC(=O)[C@@H]1CCCN1C(=O)[C@H](CO)NC(=O)[C@H](CO)NC(=O)[C@H](Cc1c[nH]cn1)NC(=O)[C@H](CCCNC(=N)N)NC(=O)[C@H](CC(C)C)NC(=O)[C@H](Cc1ccccc1)NC(=O)[C@H](CCC(=O)O)NC(=O)[C@H](C)NC(=O)[C@H](CC(C)C)NC(=O)[C@H](CCCNC(=N)N)NC(=O)[C@H](CCC(N)=O)NC(=O)[C@@H](NC(=O)[C@H](C)NC(=O)[C@@H]1CSSC[C@H](NC(=O)[C@@H](N)CCCCNC(=O)CC[C@H](NC(=O)CC[C@H](NC(=O)CCCCCCCCCCCCCCCCCCC(=O)O)C(=O)O)C(=O)O)C(=O)N[C@@H](CC(N)=O)C(=O)N[C@@H]([C@@H](C)O)C(=O)N[C@@H](C)C(=O)N[C@@H]([C@@H](C)O)C(=O)N1)[C@@H](C)O)C(=O)N1CCC[C@H]1C(=O)N[C@@H](CO)C(=O)N[C@@H](CO)C(=O)N[C@H](C(=O)N[C@@H](CC(N)=O)C(=O)N[C@H](C(=O)NCC(=O)N[C@@H](CO)C(=O)N[C@@H](CCCNC(=N)N)C(=O)N[C@H](C(=O)N[C@@H](Cc1ccc(O)cc1)C(N)=O)[C@@H](C)O)C(C)C)[C@@H](C)O [Example 89] (H-K([γGlu-γGlu-C20 diacid])CNTATCATQRLAEFLRHSSPNFGAIPSSTNVGSRTY-NH2; disulfide 2-7 (inferred); N-terminus assumed)	46	37	≥ 200	162 (≈ 738 µg/mL)	≥ 200	172 (≈ 786 µg/mL)	149 (≈ 681 µg/mL)	≥ 200	≥ 200	≥ 200	1.16	28.0	28.0	28.0	28.0	28.0	28.0	28.0	115
CC[C@H](C)[C@H](NC(=O)[C@H](C)NC(=O)CNC(=O)[C@H](Cc1ccccc1)NC(=O)[C@H](CC(N)=O)NC(=O)[C@@H]1CCCN1C(=O)[C@H](CO)NC(=O)[C@H](CO)NC(=O)[C@H](Cc1c[nH]cn1)NC(=O)[C@H](CCCNC(=N)N)NC(=O)[C@H](CC(C)C)NC(=O)[C@H](Cc1ccccc1)NC(=O)[C@H](Cc1c[nH]cn1)NC(=O)[C@H](C)NC(=O)[C@H](CC(C)C)NC(=O)[C@H](CCCNC(=N)N)NC(=O)[C@H](CCC(N)=O)NC(=O)[C@@H](NC(=O)[C@H](C)NC(=O)[C@@H]1CSSC[C@H](NC(=O)[C@@H](N)CCCCNC(=O)CC[C@H](NC(=O)CCCCCCCCCCCCCCCCCCC(=O)O)C(=O)O)C(=O)N[C@@H](CC(N)=O)C(=O)N[C@@H]([C@@H](C)O)C(=O)N[C@@H](C)C(=O)N[C@@H]([C@@H](C)O)C(=O)N1)[C@@H](C)O)C(=O)N1CCC[C@H]1C(=O)N[C@@H](CO)C(=O)N[C@@H](CO)C(=O)N[C@H](C(=O)N1CCC[C@H]1C(=O)N[C@H](C(=O)NCC(=O)N[C@@H](CO)C(=O)N[C@@H](CC(N)=O)C(=O)N[C@H](C(=O)N[C@@H](Cc1ccc(O)cc1)C(N)=O)[C@@H](C)O)C(C)C)[C@@H](C)O [Example 62] (H-K([γGlu-C20 diacid])CNTATCATQRLAHFLRHSSPNFGAIPSSTPVGSNTY-NH2; disulfide 2-7; N-terminus assumed)	62	18	≥ 200	≥ 200	≥ 200	≥ 200	189 (≈ 829 µg/mL)	≥ 200	≥ 200	≥ 200	0.098	63.0	63.0	63.0	63.0	63.0	63.0	63.0	18
CC[C@H](C)[C@H](NC(=O)[C@H](C)NC(=O)CNC(=O)[C@H](Cc1ccccc1)NC(=O)[C@H](CC(N)=O)NC(=O)[C@@H]1CCCN1C(=O)[C@H](CO)NC(=O)[C@H](CO)NC(=O)[C@H](Cc1c[nH]cn1)NC(=O)[C@H](CCCNC(=N)N)NC(=O)[C@H](CC(C)C)NC(=O)[C@H](Cc1ccccc1)NC(=O)[C@H](CC(N)=O)NC(=O)[C@H](C)NC(=O)[C@H](CC(C)C)NC(=O)[C@H](CCCNC(=N)N)NC(=O)[C@H](CCC(N)=O)NC(=O)[C@@H](NC(=O)[C@H](C)NC(=O)[C@@H]1CSSC[C@H](NC(=O)[C@H](CCCNC(=N)N)NC(=O)[C@@H](N)CCCCNC(=O)COCCOCCNC(=O)CC[C@H](NC(=O)CCCCCCCCCCCCCCCCCCC(=O)O)C(=O)O)C(=O)N[C@@H](CC(N)=O)C(=O)N[C@@H]([C@@H](C)O)C(=O)N[C@@H](C)C(=O)N[C@@H]([C@@H](C)O)C(=O)N1)[C@@H](C)O)C(=O)N1CCC[C@H]1C(=O)N[C@@H](CO)C(=O)N[C@@H](CO)C(=O)N[C@H](C(=O)N[C@@H](CC(N)=O)C(=O)N[C@H](C(=O)NCC(=O)N[C@@H](CO)C(=O)N[C@@H](Cc1c[nH]cn1)C(=O)N[C@H](C(=O)N[C@@H](Cc1ccc(O)cc1)C(N)=O)[C@@H](C)O)C(C)C)[C@@H](C)O [Example 45] (H-K([AEEA-γGlu-C20 diacid])RCNTATCATQRLANFLRHSSPNFGAIPSSTNVGSHTY-NH2; disulfide 3-8 (inferred))	27	3	≥ 200	≥ 200	≥ 200	≥ 200	110 (≈ 518 µg/mL)	≥ 200	≥ 200	≥ 200		26.8	26.8	26.8	26.8	26.8	26.8	26.8	41.8
